Data from publication PMC7826790, “Glucose 6-Phosphate Dehydrogenase from Trypanosomes: Selectivity for Steroids and Chemical Validation in Bloodstream Trypanosoma brucei” (Molecules, 2021).
Where two headings read alike, the source gives them in different places.

Assays:
[1] = molecular target: T1, T. cruzi G6PDH (Trypanosoma cruzi, UniProt Q4E0B2); experiment: biochemical; format: biochemical
Description: (§1) E. coli Tuner (DE3) cells were transformed with the pET28a (+) and pHis constructs encoding for N-terminally hexa histidine-tagged TcG6PDHL and HsG6PDH, respectively, and grown overnight in LB medium with […] and […], respectively. […] Thereafter, the cultures were incubated for 20 h at 25 °C and 170 rpm. Cells were harvested by centrifugation (5000× g, 10 min, 4 °C), resuspended in buffer A (50 mM Tris, pH of 8.0, 500 mM NaCl and 5 mM MgCl2) containing a complete™ Protease Inhibitor Cocktail prepared as indicated by the provider (Sigma-Aldrich-Merck, Germany); afterwards, we added 1 mg/mL of lysozyme and incubated the cells for 1 h at 4 °C. […] Protein concentration was determined from the absorbance values at 280 nm and the corresponding theoretical absorbance coefficients.
All reactions were performed in 50 mM Tris (pH 7.5) with 5 mM MgCl2 and 250 mM NaCl in a final volume of 500 µL. […] For each enzyme, a control reaction in the presence of 1% (v/v) DMSO was run. Stock and working solutions of compounds were prepared in 100% (v/v) DMSO. […] The initial velocities were calculated from the first 45 s of the reaction and normalized to the corresponding enzyme control. All measurements were performed at least in triplicate using a Cary 50 Bio spectrophotometer (Agilent Technologies, Santa Clara, CA, USA) at RT. The initial rates were determined with the Origin Pro 8.0 software (OriginLab Corporation, Northampton, MA, USA), and the IC50 values were calculated by nonlinear regression using the GraphPad Prism 5.0 software (GraphPad Inc., San Diego, CA, USA).

[2] = molecular target: T2, human G6PDH (Homo sapiens, UniProt P11413); experiment: G6PDH enzymatic assay, recombinant human G6PDH (NADPH formation at 340 nm); format: biochemical, H. sapiens; settings: for inhibition at 100 µM: read-out: % inhibition of human G6PDH; for inhibition of human G6PDH at highest concentration: 100 µM
T2 construct: hexa-histidine (His6) (N); made in house; host or cells: E. coli Tuner (DE3), pHis vector
T2 sequence (P11413 whole entry): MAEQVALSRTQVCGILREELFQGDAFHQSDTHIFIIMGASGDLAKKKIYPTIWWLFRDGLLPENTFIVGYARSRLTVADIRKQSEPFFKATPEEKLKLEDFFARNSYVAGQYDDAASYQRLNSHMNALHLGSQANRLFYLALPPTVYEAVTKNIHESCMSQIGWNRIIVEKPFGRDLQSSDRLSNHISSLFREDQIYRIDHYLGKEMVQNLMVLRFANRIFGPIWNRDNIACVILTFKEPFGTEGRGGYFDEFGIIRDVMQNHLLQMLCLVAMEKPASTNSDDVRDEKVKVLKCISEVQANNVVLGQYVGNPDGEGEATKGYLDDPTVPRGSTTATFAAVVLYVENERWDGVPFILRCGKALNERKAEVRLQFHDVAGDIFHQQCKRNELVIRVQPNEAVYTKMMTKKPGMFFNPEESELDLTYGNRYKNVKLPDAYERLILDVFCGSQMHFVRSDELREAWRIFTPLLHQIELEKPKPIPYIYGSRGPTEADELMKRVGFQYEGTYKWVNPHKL
Description: as §1, with “°C. Cells were further lysed by three cycles of sonication (45% amplitude, 2 s pulse on/off, for 1 min) using a macrotip in a Branson Digital Sonifier 450 (Marshall Scientific, Hampton, VA, USA) and debris was removed by centrifugation at 27,000× g for 45 min at 4 °C and filtrated through a 0.45 µm filter (Millipore-Merck, Darmstadt, Germany).” for “°C.”
G6PDH activity was determined at room temperature (RT) by monitoring NADPH (ε340 = 6220 M^−1 cm^−1) formation at 340 nm. All reactions were performed in 50 mM Tris (pH 7.5) with 5 mM MgCl2 and 250 mM NaCl in a final volume of 500 µL. The reactions were started by the addition of 700 µM NADP^+ and 6 mM G6P for TcG6PDH or by the addition of 250 µM NADP^+ and 1 mM G6P for the human enzyme. For each enzyme, a control reaction in the presence of 1% (v/v) DMSO was run. Stock and working solutions of compounds were prepared in 100% (v/v) DMSO. […] The initial velocities were calculated from the first 45 s of the reaction and normalized to the corresponding enzyme control. All measurements were performed at least in triplicate using a Cary 50 Bio spectrophotometer (Agilent Technologies, Santa Clara, CA, USA) at RT. The initial rates were determined with the Origin Pro 8.0 software (OriginLab Corporation, Northampton, MA, USA), and the IC50 values were calculated by nonlinear regression using the GraphPad Prism 5.0 software (GraphPad Inc., San Diego, CA, USA).

[3] = system: Bloodstream T. b. brucei (strain 427- cell line 514-1313); experiment: Cell viability of bloodstream T. b. brucei (bioluminescent assay); format: cell-based, Trypanosoma brucei brucei; settings: for EC50: 24 h incubation, read-out: EC50 T. brucei Bloodstream Form; for Selectivity Index (CC50 for murine macrophages/EC50 for T. brucei): DHEA: Hek293T CC50, Conessine: L6 CC50
Description: Parasite viability was performed as described in [72]. […] Thereafter, 200 µL from each well were transferred to a 96-well black plate and incubated with 20 µL of a solution containing: 1.5 mg/mL luciferin in PBS glucose 1% (w/v) and Triton X-100.

[4] = Cytotoxicity to murine macrophages (WST-1); format: cell-based; settings: mouse, J774 murine macrophage cells, read-out: CC50 Murine Macrophage (Cell Line J774)
Description: (§2) Cell viability was assessed using the WST-1 reagent.
(§3) EC50 values were obtained from the corresponding concentration/response plots fitted to a sigmoidal Hill equation or extrapolated from nonlinear fitting equations.

[5] = system: T. cruzi epimastigotes (strain DM28); experiment: Cell viability of T. cruzi epimastigotes (propidium iodide, flow cytometry); settings: 72 h; for cytotoxicity at 50 µM: read-out: % Cytotoxicity (50 µM) T. Cruzi Epimastigote Form, 50 µM, 72 h
Description: T. cruzi epimastigotes (strain DM28) were grown at 28 °C in LIT medium supplemented with 10% (v/v) Fetal Bovine Serum (FBS; GIBCO®), 7.5 mM hemin and antibiotics (penicillin 10 U/mL– streptomycin 10 µg/mL). […] Thereafter, 200 µL from each well were transferred to individual cytometer tubes.
EC50 values were obtained from the corresponding concentration/response plots fitted to a sigmoidal Hill equation or extrapolated from nonlinear fitting equations. The errors were calculated using error propagations and are expressed as S.D. estimated as σ^(n−1).

[6] = system: Bloodstream T. b. brucei expressing the redox biosensor hGrxroGFP2; experiment: Redox reporter assay (hGrx1-roGFP2 biosensor, flow cytometry); format: cell-based, Trypanosoma brucei brucei
Description: Bloodstream T. b. brucei expressing the redox biosensor hGrxroGFP2 was grown as described elsewhere. […] Next, 50 µL from each well were transferred to a 96-well plate, containing 100 µL of sterile PBS with glucose 1% (w/v). […] GFP fluorescence (filter λem = 530/40 nm) was only analyzed for viable cells (PI negative). The data were processed and analyzed with the C6Accuri software. Samples were analyzed in triplicate and the error is expressed as S.D.

[7] = system: Bloodstream T. b. brucei (strain 427- cell line 514-1313); parameters: method as in PMID 28684718; settings: read-out: EC50 T. brucei Bloodstream Form, cited from earlier work
[8] = system: mammalian L6 cell line from rat skeletal myoblasts; parameters: method as in PMID 28684718; settings: printed in the macrophage column; read-out: CC50 against mammalian L6 cell line; cited from earlier work
[9] = molecular target: T2, human G6PDH; parameters: method as in PMID 22506561; settings: read-out: IC50 H. sapiens G6PDH; cited from earlier work
[10] = system: G6PDH in T. cruzi strain CL Brenner epimastigotes; settings: 24 h
[11] = molecular target: T1, T. cruzi G6PDH; settings: read-out: IC50 T. cruzi G6PDH, cited from earlier work
[12] = system: L. mexicana G6PDH; settings: cited from earlier work
[13] = system: Hek293T; settings: read-out: CC50 against Hek293T; printed in the macrophage column; cited from earlier work
[14] = system: Murine macrophages (cell line J774); experiment: Cytotoxicity to murine macrophages (WST-1); format: cell-based; settings: 24 h, read-out: CC50 Murine Macrophage (Cell Line J774)
Description: as §2, §3

[15] = recombinant human G6PDH, 250 µM NADP+, 1 mM G6P, RT, read-out: IC50 H. sapiens G6PDH

T1 sequence (Q4E0B2 entry or part of it): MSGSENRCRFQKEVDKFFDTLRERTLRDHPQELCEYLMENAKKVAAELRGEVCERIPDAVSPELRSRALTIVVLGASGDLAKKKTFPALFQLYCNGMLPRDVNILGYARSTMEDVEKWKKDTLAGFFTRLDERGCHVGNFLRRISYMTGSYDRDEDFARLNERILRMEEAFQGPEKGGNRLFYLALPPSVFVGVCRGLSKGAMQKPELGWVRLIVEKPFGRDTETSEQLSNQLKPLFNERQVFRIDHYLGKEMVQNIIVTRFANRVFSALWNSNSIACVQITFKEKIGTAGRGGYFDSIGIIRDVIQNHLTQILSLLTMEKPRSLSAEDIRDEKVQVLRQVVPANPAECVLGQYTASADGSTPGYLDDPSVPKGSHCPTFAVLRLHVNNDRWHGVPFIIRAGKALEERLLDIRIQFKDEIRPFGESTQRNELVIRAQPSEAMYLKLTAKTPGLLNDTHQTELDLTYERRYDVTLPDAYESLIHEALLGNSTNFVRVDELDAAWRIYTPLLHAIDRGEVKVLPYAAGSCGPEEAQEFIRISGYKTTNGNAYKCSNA

For CC(=O)O[C@H]1CC[C@@]2(C)[C@@H](CC[C@@H]3[C@@H]2CC[C@]2(C)C(=O)[C@H](Br)C[C@@H]32)C1 [Compound 2], the IC50 [1] was 110 ± 20 nM, the IC50 [2] was > 100 µM and the inhibition at 100 µM [2] was 0%. The EC50 ([3]; Trypanosoma brucei, 24 h) was 5.3 ± 0.4 µM, the CC50 at 24 h [4] was 42 ± 1 µM and the cytotoxicity at 50 µM ([5]; Trypanosoma cruzi) was 64 ± 4.1%.
C[C@]12CC[C@H](O)CC1=CC[C@@H]1[C@@H]2CC[C@]2(C)C(=O)[C@H](Br)C[C@@H]12 [Compound 4] gave an IC50 [2, 15] of 48 ± 2.6 µM, an EC50 ([3]; Trypanosoma brucei, 24 h) of 7.5 ± 0.3 µM and a CC50 at 24 h [4] of 19 ± 3 µM. It also gave a cytotoxicity at 50 µM ([5]; Trypanosoma cruzi) of 6.4 ± 1.6%.
With C[C@H]1[C@H]2CC[C@H]3[C@@H]4CC=C5C[C@@H](N(C)C)CC[C@]5(C)[C@H]4CC[C@]23CN1C [Conessine, reference compound] the “inhibition of T. cruzi G6PDH at highest concentration” value ([1]; 100 µM) was “did not inhibit”, the IC50 ([1]; recombinant TcG6PDH, 700 µM NADP+, 6 mM G6P, RT, read-out: IC50 T. cruzi G6PDH) was > 100000 nM and the “inhibition of human G6PDH at highest concentration” value (“inhibition of human G6PDH” for short) [2] was “did not inhibit”. The IC50 [2, 15] was > 100 µM, the “Selectivity Index (CC50 for murine macrophages/EC50 for T. brucei)” value [3] was 145.7 and the “induction of oxidative stress in bloodstream trypanosomes” value [6] was “did not induce oxidative stress”. The EC50 ([7]; footnote e) was 0.42 ± 0.01 µM and the CC50 [8] was 61.2 µM.
With C[C@]12CC[C@H](O)CC1=CC[C@@H]1[C@@H]2CC[C@]2(C)C(=O)C(O)C[C@@H]12 (stereo partly shown) [Compound 7] the EC50 [3] was > 24 µM, the EC50 ([3]; Trypanosoma brucei, 24 h) was 24 to 44 µM and the CC50 at 24 h [4] was > 24 µM. For the same molecule, the IC50 [9] was 15.8 ± 3.3 µM and the cytotoxicity at 50 µM ([5]; Trypanosoma cruzi) was 3.9 ± 0.7%.
With CC(=O)O[C@H]1CC[C@@]2(C)C(=CC[C@@H]3[C@@H]2CC[C@]2(C)C(=O)[C@@H](Br)C[C@@H]32)C1 [Compound 6] the IC50 [1] was > 50000 nM, the IC50 [2] was > 100 µM and the “inhibition of human G6PDH” value [2] was “inactive”. The EC50 ([3]; Trypanosoma brucei, 24 h) was 5.3 ± 0.5 µM, the CC50 at 24 h [4] was 4.5 ± 0.4 µM and the “% Cytotoxicity (50 µM) T. Cruzi Epimastigote Form” value (“% Cytotoxicity” below) [5] was 76.2 ± 0.8%. The cytotoxicity at 50 µM ([5]; Trypanosoma cruzi) was 76%.
In the case of C[C@]12CC[C@H](O)C[C@@H]1CC[C@@H]1[C@@H]2CC[C@]2(C)C(=O)CC[C@@H]12 [EA, Epiandrosterone], the “G6PDH specific activity in cell extracts” value ([10]; 25 μM EA) is given as 0.12 U/mg, the “G6PDH specific activity in cell extracts” value ([10]; 100 μM EA) is given as 0.09 U/mg and the IC50 ([11]; recombinant TcG6PDH) is given as 3 ± 0.4 µM. For the same molecule, the IC50 [9] was ~10 µM, the EC50 ([7]; footnote c) was 36.5 ± 3.6 µM and the “inhibition of L. mexicana G6PDH” value [12] was “refractory”.
For C[C@]12CC[C@H](O)C[C@@H]1CC[C@@H]1[C@@H]2CC[C@]2(C)C(=O)[C@H](Br)C[C@@H]12 [Compound 1, 16α-bromo-epiandrosterone], the EC50 ([3]; Trypanosoma brucei, 24 h) was 1.9 ± 0.2 µM, the CC50 at 24 h [4] was 8.8 ± 1 µM and the “% Cytotoxicity” value [5] was 14.5 ± 5.3%. It also gave a cytotoxicity at 50 µM ([5]; Trypanosoma cruzi) of 15%.
In the case of CC1CS(=O)(=O)CCN1/N=C/c1ccc([N+](=O)[O-])o1 (stereo not shown) [Nifurtimox, reference compound], the “Selectivity Index (CC50 for murine macrophages/EC50 for T. brucei)” value [3] is reported as 23.3, the EC50 ([3]; Trypanosoma brucei, 24 h) is reported as 6 ± 0.4 µM and the CC50 at 24 h [4] is reported as 140 ± 2 µM. It also gave a cytotoxicity at 24 µM ([5]; Trypanosoma cruzi, read-out: % Cytotoxicity T. Cruzi Epimastigote Form, at 24 µM, 72 h) of 46 ± 1.9%.
For C[C@]12CC[C@H](O)CC1=CC[C@@H]1[C@@H]2CC[C@]2(C)C(=O)CC[C@@H]12 [DHEA, dehydroepiandrosterone], the IC50 ([11]; TcG6PDH) is given as 21.5 ± 0.5 µM, the IC50 [9] is given as ~10 µM and the EC50 ([7]; footnote c) is given as 43.8 ± 2 µM. The CC50 [13] was 25 ± 13 µM and the “inhibition of L. mexicana G6PDH” value [12] was “refractory”.
With CN(C)C(=O)/N=N/C(=O)N(C)C [diamide] the biosensor oxidation ([6]; 250 µM, 20 min) was 54%.
In the case of CC(=O)O[C@H]1CC[C@@]2(C)[C@@H](CC[C@@H]3[C@@H]2CC[C@]2(C)C(=O)[C@@H](Br)C[C@@H]32)C1 [Compound 3], the IC50 [1] is reported as 1500 ± 200 nM, the IC50 [2] is reported as > 100 µM and the “inhibition of human G6PDH” value [2] is reported as “inactive”. The EC50 ([3]; Trypanosoma brucei, 24 h) was 4.8 ± 0.5 µM, the CC50 at 24 h [4] was 0.96 µM and the CC50 [14] was 1000 ± 100 nM. For the same molecule, the “% Cytotoxicity” value [5] was 73.9 ± 3.4% and the cytotoxicity at 50 µM ([5]; Trypanosoma cruzi) was 74%.
In the case of CC(=O)O[C@H]1CC[C@@]2(C)C(=CC[C@@H]3[C@@H]2CC[C@]2(C)C(=O)[C@H](Br)C[C@@H]32)C1 [Compound 5], the IC50 [1] is reported as 79 ± 10 nM, the IC50 [2] is reported as > 100 µM and the inhibition at 100 µM [2] is reported as 0%. For the same molecule, the EC50 ([3]; Trypanosoma brucei, 24 h) was 18 ± 3 µM, the CC50 at 24 h [4] was 39 ± 3 µM and the cytotoxicity at 50 µM ([5]; Trypanosoma cruzi) was 30.9 ± 2.5%.
